Structures can show the parent of a compound that is named as a salt. One block for each molecule: values may come before it.
Experiments:
[1] = test system: FLT3-ITD-BaF3; assay: Proliferation of FLT3-ITD-BaF3 cells, CCK8 cell viability assay; format: cell-based; conditions: Mus musculus, 72 hours, stably expressing FLT3/ITD
From the text: (§1) In this example the following cells were used: […] (purchased from ATCC), mouse P210-BaF3 (stably expressing BCR-ABL mutant activated kinase), mouse P210/T315I-BaF3 (stably expressing BCR-ABL/T315I mutant activated kinase), mouse FLT3-ITD-BaF3 (stably expressing FLT3/ITD mutant activated kinase), mouse TEL-FLT3-BaF3 (stably expressing FLT3 kinase), mouse TEL-cKIT-BaF3 (stably expressing cKIT kinase), mouse BaF3-tel/T670I-cKit (stably expressing cKIT/T670I mutant activated kinase), mouse Tel-VEGFR2-BaF3 (stably expressing VEGFR2 kinase), mouse Tel-PDGFRα-BaF3 (stably expressing PDGFRα kinase), mouse Tel-PDGFRβ-BaF3 (stably expressing PDGFRβ kinase), mouse Tel-RET-BaF3 (stably expressing RET kinase). The above cell lines were all constructed by our laboratory according to the following method: the kinase region sequences of human P210, P210/T315I, FLT3/ITD, FLT3, cKIT, cKIT/T670I, VEGFR2, PDGFRα, PDGFRβ, RET were respectively amplified by PCR, and inserted into MSCV-Puro vectors having N-terminal TEL or TPR fragments (Clontech). The vectors were stably transfected into mouse BaF3 cells by means of retrovirus, and the growth factor IL-3 were removed, eventually obtaining cell lines that depend on transferred protein P210, P210/T315I, FLT3/ITD, FLT3, cKIT, cKIT/T670I, VEGFR2, PDGFRα, PDGFRβ, or RET.
(§2) GI50 (unit: μM) was calculated by quantifying the number of living cells based on quantitative measurement of reductive dehydrogenase in living cells with CCK8 cell viability assay kit (Bestbio, China).

[2] = test system: P210-BaF3; assay: Proliferation of P210-BaF3 cells, CCK8 cell viability assay; format: cell-based; conditions: Mus musculus, 72 hours, stably expressing BCR-ABL mutant activated kinase
From the text: as §1, §2

[3] = test system: TEL-PDGFRβ-BaF3; assay: Proliferation of TEL-PDGFRβ-BaF3 cells, CCK8 cell viability assay; format: cell-based; conditions: Mus musculus, 72 hours, stably expressing PDGFRβ kinase
From the text: as §1, §2

[4] = test system: Tel-RET-BaF3; assay: Proliferation of Tel-RET-BaF3 cells, CCK8 cell viability assay; format: cell-based; conditions: Mus musculus, 72 hours, stably expressing RET kinase
From the text: as §1, §2

[5] = test system: TEL-VEGFR2-BaF3; assay: Proliferation of TEL-VEGFR2-BaF3 cells, CCK8 cell viability assay; format: cell-based; conditions: Mus musculus, 72 hours, stably expressing VEGFR2 kinase
From the text: as §1, §2

[6] = test system: Tel-FLT3-BaF3; assay: Proliferation of Tel-FLT3-BaF3 cells, CCK8 cell viability assay; format: cell-based; conditions: Mus musculus, 72 hours, stably expressing FLT3 kinase
From the text: as §1, §2

[7] = test system: BaF3; assay: Proliferation of BaF3 cells, CCK8 cell viability assay; format: cell-based; conditions: Mus musculus, 72 hours
From the text: as §1, §2

[8] = test system: Tel-cKit/T670I-BaF3; assay: Proliferation of Tel-cKit/T670I-BaF3 cells, CCK8 cell viability assay; format: cell-based; conditions: Mus musculus, 72 hours, stably expressing cKIT/T670I
From the text: as §1, §2

[9] = test system: Tel-cKit-BaF3; assay: Proliferation of Tel-cKit-BaF3 cells, CCK8 cell viability assay; format: cell-based, mouse; conditions: for GI50: Mus musculus, 72 hours, CCK8, stably expressing cKIT kinase
From the text: as §1, §2

[10] = test system: TEL-PDGFRα-BaF3; assay: Proliferation of TEL-PDGFRα-BaF3 cells, CCK8 cell viability assay; format: cell-based; conditions: Mus musculus, 72 hours, stably expressing PDGFRα kinase
From the text: as §1, §2

[11] = test system: P210/T315I-BaF3; assay: Proliferation of P210/T315I-BaF3 cells, CCK8 cell viability assay; format: cell-based; conditions: Mus musculus, 72 hours, stably expressing BCR-ABL/T315I
From the text: as §1, §2

Compound: CC(=O)Nc1cc(Oc2ccc(NC(=O)Cc3ccccc3I)cc2)ncn1 [Example 4, N-[4-(6-acetylamino-pyrimidin-4-yloxy)-phenyl]-2-(2-iodo-phenyl)-acetamide]
- GI50 [1]: 61 nM
- GI50 [2]: > 10000 nM
- GI50 [3]: 48 nM
- GI50 [4]: > 10000 nM
- GI50 [5]: 734 nM
- GI50 [6]: 667 nM
- GI50 [7]: > 10000 nM
- GI50 [8]: > 10000 nM
- GI50 [9]: > 10000 nM
- GI50 [10]: 13 nM

Compound: CC(=O)Nc1cc(Oc2ccc(NC(=O)Cc3c(Cl)cccc3Cl)cc2)ncn1 [Example 6, N-[4-(6-acetylamino-pyrimidin-4-yloxy)-phenyl]-2-(2,6-dichloro-phenyl)-acetamide]
- GI50 [1]: 63 nM
- GI50 [2]: > 10000 nM
- GI50 [3]: 346 nM
- GI50 [4]: > 10000 nM
- GI50 [5]: 1930 nM
- GI50 [6]: 663 nM
- GI50 [7]: > 10000 nM
- GI50 [8]: > 10000 nM
- GI50 [9]: > 10000 nM
- GI50 [10]: 59 nM

Compound: COCCNc1cc(Oc2ccc(NC(=O)Nc3ccc(C(F)(F)F)cc3)cc2)ncn1 [Example 73, 1-{4-[6-(2-methoxy-ethylamino)-pyrimidin-4-yloxy]-phenyl}-3-(4-trifluoromethyl-phenyl)-urea]
- GI50 [1]: 170 nM
- GI50 [2]: > 10000 nM
- GI50 [3]: 154 nM
- GI50 [4]: > 10000 nM
- GI50 [6]: 1570 nM
- GI50 [11]: > 10000 nM
- GI50 [7]: > 10000 nM
- GI50 [8]: > 10000 nM
- GI50 [9]: 5680 nM
- GI50 [10]: 165 nM

Compound: Cc1ccc(NC(=O)Nc2ccc(Oc3cc(N4CCNC[C@H]4C)ncn3)cc2)cc1C(F)(F)F [Example 105, (R)-1-(4-methyl-3-(trifluoromethyl)phenyl)-3-(4-((6-(2-methylpiperazin-1-yl)pyrimidin-4-yl)oxy)phenyl)urea]
- GI50 [1]: 86 nM
- GI50 [3]: 195 nM
- GI50 [4]: 2750 nM
- GI50 [5]: 323 nM
- GI50 [6]: 200 nM
- GI50 [7]: 9670 nM
- GI50 [8]: 2160 nM
- GI50 [9]: 990 nM
- GI50 [10]: 14 nM

Compound: Cc1ccc(NC(=O)Nc2ccc(Oc3cc(N4CCNC[C@@H]4C)ncn3)cc2)cc1C(F)(F)F [Example 107, (S)-1-(4-methyl-3-(trifluoromethyl)phenyl)-3-(4-((6-(2-methylpiperazin-1-yl)pyrimidin-4-yl)oxy)phenyl)urea]
- GI50 [1]: 150 nM
- GI50 [3]: 117 nM
- GI50 [4]: 1980 nM
- GI50 [5]: 508 nM
- GI50 [6]: 340 nM
- GI50 [7]: 8120 nM
- GI50 [8]: 940 nM
- GI50 [9]: 2850 nM
- GI50 [10]: 34 nM

Compound: Cc1ccc(NC(=O)Nc2ccc(Oc3cc(N4CCN(C(=O)OC(C)(C)C)C[C@H]4CO)ncn3)cc2)cc1C(F)(F)F [Example 110, (S)-3-(hydroxymethyl)-4-(6-(4-(3-(4-methyl-3-(trifluoromethyl)phenyl)ureido)phenoxy)pyrimidin-4-yl)piperazin-1-tert-butyl Formate]
- GI50 [1]: 182 nM
- GI50 [3]: 270 nM
- GI50 [4]: 6210 nM
- GI50 [5]: 4620 nM
- GI50 [6]: 4860 nM
- GI50 [7]: > 10000 nM
- GI50 [8]: 5290 nM
- GI50 [9]: 2250 nM
- GI50 [10]: 60 nM

Compound: CC[C@@H]1CN(C(=O)OC(C)(C)C)CCN1c1cc(Oc2ccc(NC(=O)Nc3ccc(C)c(C(F)(F)F)c3)cc2)ncn1 [Example 111, (R)-3-ethyl-4-(6-(4-(3-(4-methyl-3-(trifluoromethyl)phenyl)ureido)phenoxy)pyrimidin-4-yl)piperazin-1-tert-butyl formate]
- GI50 [1]: 141 nM
- GI50 [3]: 690 nM
- GI50 [4]: > 10000 nM
- GI50 [5]: 1740 nM
- GI50 [6]: 6160 nM
- GI50 [7]: > 10000 nM
- GI50 [8]: 8600 nM
- GI50 [9]: 6050 nM
- GI50 [10]: 190 nM

Compound: Cc1ccc(NC(=O)Nc2ccc(Oc3cc(N[C@H](C)CN)ncn3)cc2)cc1C(F)(F)F [Example 113, (R)-1-(4-((6-((1-aminoprop-2-yl)amino)pyrimidin-4-yl)oxy)phenyl)-3-(4-methyl-3-(trifluoromethyl)phenyl)urea]
- GI50 [1]: 259 nM
- GI50 [3]: 170 nM
- GI50 [4]: > 10000 nM
- GI50 [5]: 1260 nM
- GI50 [6]: 638 nM
- GI50 [7]: > 10000 nM
- GI50 [8]: 8540 nM
- GI50 [9]: 3220 nM
- GI50 [10]: 86 nM

Compound: Cc1ccc(NC(=O)Nc2ccc(Oc3cc(N4CCN(C(=O)CC(C)(C)C)C[C@H]4C)ncn3)cc2)cc1C(F)(F)F [Example 115, (R)-1-(4-((6-(4-(3,3-dimethylbutyryl)-2-methylpiperazin-1-yl)pyrimidin-4-yl)oxy)phenyl)-3-(4-methyl-3-(trifluoromethyl)phenyl)urea]
- GI50 [1]: 413 nM
- GI50 [3]: 190 nM
- GI50 [4]: 3970 nM
- GI50 [5]: 2280 nM
- GI50 [6]: 2190 nM
- GI50 [7]: 9870 nM
- GI50 [8]: 4250 nM
- GI50 [9]: 2120 nM
- GI50 [10]: 52 nM

Compound: CNC(=O)c1cc(Oc2ccc(NC(=O)Nc3ccc(Cl)c(C(F)(F)F)c3)cc2)ccn1 [Sorafenib, reference compound]
- GI50 [1]: 0.3 nM
- GI50 [2]: 3830 nM
- GI50 [3]: 35 nM
- GI50 [4]: 365 nM
- GI50 [6]: 0.9 nM
- GI50 [7]: 6990 nM
- GI50 [8]: 112 nM
- GI50 [9]: 58 nM
- inhibition of cKIT (in words) ([9]; summary of Table 2): strongly inhibits
- GI50 [10]: 0.6 nM

More lines, in order of falling GI50 [1], values ahead:

- GI50 [1]: 58 nM
- GI50 [3]: 51 nM
- GI50 [4]: 3820 nM
- GI50 [5]: 390 nM
- GI50 [6]: 599 nM
- GI50 [7]: 4120 nM
- GI50 [8]: 886 nM
- GI50 [9]: 1070 nM
- GI50 [10]: 23 nM
Compound: Cc1ccc(NC(=O)Nc2ccc(Oc3cc(N[C@H](C)CNC(=O)OC(C)(C)C)ncn3)cc2)cc1C(F)(F)F [Example 112, (R)-(2-((6-(4-(3-(4-methyl-3-(trifluoromethyl)phenyl)ureido)phenoxy)pyrimidin-4-yl)amino)propyl)aminotert-butyl Formate]

- GI50 [1]: 37 nM
- GI50 [3]: 30 nM
- GI50 [4]: 3830 nM
- GI50 [5]: 1330 nM
- GI50 [6]: 1090 nM
- GI50 [7]: 6050 nM
- GI50 [8]: 1010 nM
- GI50 [9]: 287 nM
- GI50 [10]: 5 nM
Compound: Cc1ccc(NC(=O)Nc2ccc(Oc3cc(N4CCOC[C@H]4C)ncn3)cc2)cc1C(F)(F)F [Example 114, (R)-1-(4-methyl-3-(trifluoromethyl)phenyl)-3-(4-((6-(3-methylmorpholino)pyrimidin-4-yl)oxy)phenyl)urea]

- GI50 [1]: 9 nM
- GI50 [3]: 324 nM
- GI50 [4]: 3880 nM
- GI50 [5]: 98 nM
- GI50 [6]: 11 nM
- GI50 [7]: > 10000 nM
- GI50 [8]: 7820 nM
- GI50 [9]: 970 nM
- GI50 [10]: 16 nM
Compound: CN1CCN(Cc2ccc(NC(=O)Nc3ccc(Oc4cc(NCCN)ncn4)cc3)cc2C(F)(F)F)CC1 [Example 108, 1-{4-[6-(2-amino-ethylamino)-pyrimidin-4-yloxy]-phenyl}-3-[4-(4-methyl-piperazin-1-ylmethyl)-3-trifluoromethyl-phenyl]-urea]

- GI50 [1]: 7 nM
- GI50 [3]: 392 nM
- GI50 [4]: 460 nM
- GI50 [5]: 145 nM
- GI50 [6]: 11 nM
- GI50 [7]: 3540 nM
- GI50 [8]: 3360 nM
- GI50 [9]: 999 nM
- GI50 [10]: 13 nM
Compound: CCN1CCN(Cc2ccc(NC(=O)Nc3ccc(Oc4cc(NCCN)ncn4)cc3)cc2C(F)(F)F)CC1 [Example 109, 1-{4-[6-(2-amino-ethylamino)-pyrimidin-4-yloxy]-phenyl}-3-[4-(4-ethyl-piperazin-1-ylmethyl)-3-trifluoromethyl-phenyl]-urea]

- GI50 [1]: 3 nM
- GI50 [3]: 315 nM
- GI50 [4]: 331 nM
- GI50 [5]: 39 nM
- GI50 [6]: 22 nM
- GI50 [11]: 1720 nM
- GI50 [7]: 9010 nM
- GI50 [8]: 2850 nM
- GI50 [9]: 330 nM
- GI50 [10]: 112 nM
Compound: COc1ccc(CNc2cc(Oc3ccc(NC(=O)Nc4ccc(CN5CCNCC5)c(C(F)(F)F)c4)cc3)ncn2)cc1 [Example 180, 1-{4-[6-(4-methoxy-benzylamino)-pyrimidin-4-yloxy]-phenyl}-3-(4-piperazin-1-ylmethyl-3-trifluoromethyl-phenyl)-urea]

Reference: patent US11602534B2, “Pyrimidine derivative kinase inhibitors” (HEFEI INSTITUTES OF PHYSICAL SCIENCE, CHINESE ACADEMY OF …, priority 2017, dated 2023)
